Measured values from paper PMC9027957, “Interspecies Comparisons of the Effects of Potential Antiviral 3-Amidinophenylalanine Derivatives on Cytochrome P450 1A2 Isoenzyme” (Veterinary Sciences, 2022).

Experiments:
CYP1A2 [1] = molecular target: T1, CYP1A2 (Macaca fascicularis, UniProt O77809); details: 2 h, 50 µM
T1 sequence (O77809 1-516): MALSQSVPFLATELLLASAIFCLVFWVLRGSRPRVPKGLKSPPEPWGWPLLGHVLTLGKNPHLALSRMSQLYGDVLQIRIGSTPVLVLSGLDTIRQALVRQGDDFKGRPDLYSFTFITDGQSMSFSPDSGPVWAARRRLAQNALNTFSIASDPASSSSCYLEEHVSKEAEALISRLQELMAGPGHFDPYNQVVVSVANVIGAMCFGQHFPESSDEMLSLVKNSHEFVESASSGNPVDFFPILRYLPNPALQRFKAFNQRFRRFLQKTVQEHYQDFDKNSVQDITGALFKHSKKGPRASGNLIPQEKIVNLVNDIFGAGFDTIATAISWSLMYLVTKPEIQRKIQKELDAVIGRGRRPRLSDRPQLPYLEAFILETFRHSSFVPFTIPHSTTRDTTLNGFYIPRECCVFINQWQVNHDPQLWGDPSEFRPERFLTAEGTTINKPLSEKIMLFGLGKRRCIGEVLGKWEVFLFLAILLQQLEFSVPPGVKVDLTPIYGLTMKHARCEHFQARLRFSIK
Method: For the measurements of CYP1A2 activities, hepatocytes were grown on 24-well collagen-coated membrane inserts (Costar Transwell-PTFE membrane, 6.5 mm, pore size: 0.4 µm, Merck, Darmstadt, Germany). […] The determination of the CYP1A2 activities were performed using the P450-Glo CYP450 Assay (Promega, Madison, WI, USA) according to the manufacturer’s instructions.

[2] = tested on: chicken hepatic cell model; details: cited from earlier work
[3] = 60 min microsomal stability assay (UPLC-MS/MS), beagle liver microsomes; format: in vitro ADME; details: 50 µM
Method: Rat, beagle (Gibco, Biocenter, Szeged, Hungary), and cynomolgus monkey (Primacyt, Schwerin, Germany) liver microsomes were exposed to inhibitors MI-432, MI-463, MI-482, or MI-1900 at 50 µM for 60 min. The final microsomal protein concentration in the suspension was 0.6 mg/mL in each case. The reaction buffer (100 mM phosphate buffer pH 7.4) also contained 1 mM nicotinamide adenine dinucleotide phosphate (NADPH), 5 mM MgCl2, 10 mM glucose-6-phosphate (G6P), and 2 IU/mL glucose-6-phosphate dehydrogenase (G6PD). The reaction was terminated by the addition of ice-cold acetonitrile (ACN) with the ratio of sample ACN volume = 1:2. The precipitated protein was removed by centrifugation at 10,000× g for 10 min, and the supernatants were used for subsequent analyses.
The determination of all analytes was carried out using an UPLC/MS/MS system, which consisted of an HPLC apparatus (SCIEX ExionLC^TM UPLC, Framigham, MA, USA) and a SCIEX Qtrap 4500 triple-quadrupole mass spectrometer (Framigham, MA, USA) equipped with a SCIEX Turbo V electrospray ionization source. The HPLC columns used were LiChrospher RP Select B (125 × 4.0 mm, 5.0 μm, C8 stationary phase). Next, 0.1% trifluoroacetic acid in ultra-purified water (A) and acetonitrile (B) were used as mobile phases for chromatographic separations applying a gradient elution. The HPLC gradient program was the following: between 0 and 10 min, a ratio of 70% A and 30% B; from 10 to 20 min, linearly increasing to a ratio of 50% A and 50% B; from 20 to 21 min, maintained at a ratio of 50% A and 50% B; from 21 to 22 min, linearly decreasing back to a ratio of 70% A and 30% B; and between 22 min and 30 min, maintained at a ratio of 70% A and 30% B. The run time was 30 min, the column temperature was adjusted to 35 °C, and the flow rate was 1 mL/min.

CYP1A2 [4] = molecular target: T2, CYP1A2 (Rattus norvegicus, UniProt P04799); assay: CYP1A2 fluorometric activity assay in rat hepatic microsomes; format: in vitro ADME, rat (Sprague–Dawley); design: Rat (Sprague–Dawley) and beagle (Gibco, Biocenter, Szeged, Hungary, protein concentration: 20 mg/mL) hepatic microsomal preparations; tissue Gibco, Biocenter, Szeged, Hungary; host or cells: liver (hepatic microsomes), Sprague-Dawley rat
T2 sequence (P04799 1-513): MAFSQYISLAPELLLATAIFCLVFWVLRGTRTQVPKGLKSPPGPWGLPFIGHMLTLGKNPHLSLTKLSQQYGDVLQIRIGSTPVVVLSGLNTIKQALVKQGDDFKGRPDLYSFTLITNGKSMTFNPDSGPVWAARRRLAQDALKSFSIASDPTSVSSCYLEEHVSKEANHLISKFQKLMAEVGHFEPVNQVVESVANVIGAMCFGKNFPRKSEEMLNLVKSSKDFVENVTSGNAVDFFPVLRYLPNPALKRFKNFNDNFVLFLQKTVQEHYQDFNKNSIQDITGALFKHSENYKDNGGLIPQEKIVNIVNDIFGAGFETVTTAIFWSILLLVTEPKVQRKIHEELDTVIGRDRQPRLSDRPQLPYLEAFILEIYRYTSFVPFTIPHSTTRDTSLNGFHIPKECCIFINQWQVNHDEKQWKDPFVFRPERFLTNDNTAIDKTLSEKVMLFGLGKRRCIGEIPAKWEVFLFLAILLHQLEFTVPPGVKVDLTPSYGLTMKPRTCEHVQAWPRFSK
Method: The Biovision CYP assay (BioVision, Inc., Kampenhout, Belgium) utilizes a non-fluorescent CYP1A2 substrate capable of transforming into a highly fluorescent metabolite, which can be detected in the visible range. α-naphthoflavone was used as a CYP1A2 reference inhibitor at 6 µM during the experiments. Rat (Sprague–Dawley) and beagle (Gibco, Biocenter, Szeged, Hungary, protein concentration: 20 mg/mL) hepatic microsomal preparations were prepared separately by mixing 25 µL of the obtained rat or beagle microsomal suspension with 2425 µL assay buffer and with 50 µL NADPH generating system (100×). In the case of the cynomolgus monkey microsomal suspension (Primacyt, Schwerin, Germany, protein concentration: 5 mg/mL), the following volumes were applied: in addition to 100 µL of monkey microsomal suspension, the amount of assay buffer and the NADPH generating system were adjusted in order to ensure the original ratios of these components to reach a final volume of 2500 µL. Rat, beagle, and cynomolgus monkey microsomal suspension aliquots (50 µL) were treated with the protease inhibitor 20 µL, 0–1000 µM), the reference compound α-naphthoflavone (20 µL, 30 µM), or the assay buffer without test compounds (20 µL, background control) for 15 min at 37 °C. After incubation, 30 µL of the appropriate CYP1A2 substrate/NADP+ mixture was added to each well, yielding a final reaction volume of 100 µL/well. The protein contents of the obtained microsomes were analysed using bicinchoninic acid protein assay kit (Pierce BCA kit, Thermo Fisher Scientific, Waltham, MA, USA). […] The fluorescence intensities were measured with a fluorometer (Victor X2 2030, Perkin Elmer, Waltham, MA, USA), using λEx/Em = 406/468 nm.

SARS-CoV-2 = tested on: SARS-CoV-2; design: method as in PMID 32703818; details: infected human airway epithelial Calu 3 cells, dose-dependent; cited from earlier work

Compound | CYP1A2 activity in cynomolgus monkey hepatocytes (CYP1A2 [1]) | redox homeostasis [2] | depletion percentage of the parent compound ([3]; beagle, dog, pH 7.4) [%] | rat hepatic microsomal CYP1A2 isoenzyme activity (CYP1A2 [4]; Sprague-Dawley, rat, 15 min, 50 µM) | SARS-CoV-2 titers (SARS-CoV-2) | depletion percentage of the parent compound ([3]; beagle microsomes, 0.6 mg/mL protein, mean ± SD (n = 3)) [%] | rat hepatic microsomal CYP1A2 isoenzyme activity (CYP1A2 [4]; inhibitors at 50 µM, 15 min at 37 °C, vs untreated control)
N=C(N)c1cccc(C[C@H](NS(=O)(=O)c2cccc(-c3ccc(Cl)cc3Cl)c2)C(=O)N2CCC(CCN)CC2)c1 [MI-432] | significantly decrease the activity of CYP1A2 | only transiently disturbed | 23.8 ± 7 | did not inhibit CYP1A2 function | reduced | – | –
COc1ccc(-c2cccc(S(=O)(=O)N[C@@H](Cc3cccc(C(=N)N)c3)C(=O)N3CCN(C(=O)NC4CCCCC4)CC3)c2)c(OC)c1 [MI-1900] | significantly decrease the activity of CYP1A2 | – | – | – | reduced | 23.7 ± 11.1 | suppressed
